Measured values from PubChem BioAssay AID1963969 (Molecular Pharmacology Branch, DTP, NCI, 2024).

System: 817829-284-R-J1-PDC multi-cell spheroid viability
Experiment: Anticancer human tumor 817829-284-R-J1-PDC patient-derived colon adenocarcinoma cell line growth inhibition [PI3K]
Details: for IC50: curve of first compound; for viability, T/C: stronger effect = lower value
Summary of the method: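 Agents were dosed from a top concentration near clinical Cmax (otherwise 10 microM) in half-log decrements, alone or combined with PI3K inhibitors. The spheroids contain tumor cells plus endothelial (HUVEC) and MSC stroma; viability is measured.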

[1] = second compound 0.0316 µM, first compound 0.0316 µM
[2] = second compound 0.0316 µM, first compound 0.1 µM
[3] = second compound 0.1 µM, first compound 0.0316 µM
[4] = second compound 0.1 µM, first compound 0.1 µM
[5] = second compound 0.316 µM, first compound 0.0316 µM
[6] = second compound 0.316 µM, first compound 0.1 µM
[7] = second compound 1 µM, first compound 0.0316 µM
[8] = second compound 1 µM, first compound 0.1 µM
[9] = second compound 3.16 µM, first compound 0.0316 µM
[10] = second compound 3.16 µM, first compound 0.1 µM
[11] = second compound 10 µM, first compound 0.0316 µM
[12] = second compound 10 µM, first compound 0.1 µM
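Further: spheroids exposed to agents for seven days before readout.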
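Wherever viability, T/C is given: percent of vehicle DMSO control viability which is 100%.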

Compound: CC(C)n1nc(-c2ccc3oc(N)nc3c2)c2c(N)ncnc21 + CC(Nc1ncnc2nc[nH]c12)c1cc2cccc(Cl)c2c(=O)n1-c1ccccc1
- IC50 (second compound 0.0316 µM): 19.7 nM
- IC50 (second compound 0.1 µM): 33.9 nM
- IC50 (second compound 0.316 µM): 15.8 nM
- IC50 (second compound 1 µM): 19.5 nM
- IC50 (second compound 3.16 µM): 9.43 nM
- IC50 (second compound 10 µM): 10.9 nM
- viability, T/C (second compound 0.0316 µM, first compound 0.000316 µM): 74.9%
- viability, T/C (second compound 0.0316 µM, first compound 0.001 µM): 107%
- viability, T/C (second compound 0.0316 µM, first compound 0.00316 µM): 57.3%
- viability, T/C (second compound 0.0316 µM, first compound 0.01 µM): 62.7%
- viability, T/C [1]: 44.8%
- viability, T/C [2]: 18.1%
- viability, T/C (second compound 0.1 µM, first compound 0.000316 µM): 100%
- viability, T/C (second compound 0.1 µM, first compound 0.001 µM): 121%
- viability, T/C (second compound 0.1 µM, first compound 0.00316 µM): 64%
- viability, T/C (second compound 0.1 µM, first compound 0.01 µM): 80%
- viability, T/C [3]: 56.7%
- viability, T/C [4]: 18.7%
- viability, T/C (second compound 0.316 µM, first compound 0.000316 µM): 135%
- viability, T/C (second compound 0.316 µM, first compound 0.001 µM): 77.2%
- viability, T/C (second compound 0.316 µM, first compound 0.00316 µM): 94.2%
- viability, T/C (second compound 0.316 µM, first compound 0.01 µM): 59.9%
- viability, T/C [5]: 31.3%
- viability, T/C [6]: 27.5%
- viability, T/C (second compound 1 µM, first compound 0.000316 µM): 89.4%
- viability, T/C (second compound 1 µM, first compound 0.001 µM): 124%
- viability, T/C (second compound 1 µM, first compound 0.00316 µM): 74.4%
- viability, T/C (second compound 1 µM, first compound 0.01 µM): 66.3%
- viability, T/C [7]: 41.9%
- viability, T/C [8]: 18.9%
- viability, T/C (second compound 3.16 µM, first compound 0.000316 µM): 106%
- viability, T/C (second compound 3.16 µM, first compound 0.001 µM): 86.4%
- viability, T/C (second compound 3.16 µM, first compound 0.00316 µM): 96%
- viability, T/C (second compound 3.16 µM, first compound 0.01 µM): 47.4%
- viability, T/C [9]: 44.2%
- viability, T/C [10]: 23.8%
- viability, T/C (second compound 10 µM, first compound 0.000316 µM): 80%
- viability, T/C (second compound 10 µM, first compound 0.001 µM): 68.5%
- viability, T/C (second compound 10 µM, first compound 0.00316 µM): 106%
- viability, T/C (second compound 10 µM, first compound 0.01 µM): 52.1%
- viability, T/C [11]: 30.3%
- viability, T/C [12]: 17.8%

Compound: CC(Cn1ccc(-c2ccc(C#N)c(Cl)c2)n1)NC(=O)c1cc(C(C)O)[nH]n1 (stereo unspecified) + CC(Nc1ncnc2nc[nH]c12)c1cc2cccc(Cl)c2c(=O)n1-c1ccccc1
- IC50 (second compound 0.0316 µM): > 10000 nM
- IC50 (second compound 0.1 µM): 8490 nM
- IC50 (second compound 0.316 µM): > 10000 nM
- IC50 (second compound 1 µM): > 10000 nM
- IC50 (second compound 3.16 µM): > 10000 nM
- IC50 (second compound 10 µM): > 10000 nM
- viability, T/C [1]: 71.5%
- viability, T/C [2]: 78.8%
- viability, T/C (second compound 0.0316 µM, first compound 0.316 µM): 98.5%
- viability, T/C (second compound 0.0316 µM, first compound 1 µM): 64.6%
- viability, T/C (second compound 0.0316 µM, first compound 3.16 µM): 75.5%
- viability, T/C (second compound 0.0316 µM, first compound 10 µM): 75.1%
- viability, T/C [3]: 106%
- viability, T/C [4]: 82.7%
- viability, T/C (second compound 0.1 µM, first compound 0.316 µM): 95.7%
- viability, T/C (second compound 0.1 µM, first compound 1 µM): 83.2%
- viability, T/C (second compound 0.1 µM, first compound 3.16 µM): 87.7%
- viability, T/C (second compound 0.1 µM, first compound 10 µM): 43.4%
- viability, T/C [5]: 109%
- viability, T/C [6]: 82.7%
- viability, T/C (second compound 0.316 µM, first compound 0.316 µM): 105%
- viability, T/C (second compound 0.316 µM, first compound 1 µM): 66.6%
- viability, T/C (second compound 0.316 µM, first compound 3.16 µM): 99.8%
- viability, T/C (second compound 0.316 µM, first compound 10 µM): 66.3%
- viability, T/C [7]: 83.9%
- viability, T/C [8]: 78.8%
- viability, T/C (second compound 1 µM, first compound 0.316 µM): 100%
- viability, T/C (second compound 1 µM, first compound 1 µM): 74.5%
- viability, T/C (second compound 1 µM, first compound 3.16 µM): 91.3%
- viability, T/C (second compound 1 µM, first compound 10 µM): 102%
- viability, T/C [9]: 90.9%
- viability, T/C [10]: 53.7%
- viability, T/C (second compound 3.16 µM, first compound 0.316 µM): 79.1%
- viability, T/C (second compound 3.16 µM, first compound 1 µM): 90.4%
- viability, T/C (second compound 3.16 µM, first compound 3.16 µM): 47.5%
- viability, T/C (second compound 3.16 µM, first compound 10 µM): 71.4%
- viability, T/C [11]: 67.6%
- viability, T/C [12]: 48.2%
- viability, T/C (second compound 10 µM, first compound 0.316 µM): 71.3%
- viability, T/C (second compound 10 µM, first compound 1 µM): 51%
- viability, T/C (second compound 10 µM, first compound 3.16 µM): 67.5%
- viability, T/C (second compound 10 µM, first compound 10 µM): 40.1%

Compound: Cn1cnc2c(F)c(Nc3ccc(Br)cc3Cl)c(C(=O)NOCCO)cc21 + COc1c(OCCCN2CCOCC2)ccc2c3n(c(=NC(=O)c4cnc(N)nc4)nc12)CCN3
- IC50 (second compound 0.00316 µM): 487 nM
- IC50 (second compound 0.01 µM): 82.7 nM
- IC50 (second compound 0.0316 µM): 80.1 nM
- IC50 (second compound 0.1 µM): < 9.49 nM
- IC50 (second compound 0.316 µM): < 9.49 nM
- IC50 (second compound 1 µM): < 9.49 nM
- viability, T/C (second compound 0.00316 µM, first compound 0.00949 µM): 63.7%
- viability, T/C (second compound 0.00316 µM, first compound 0.03 µM): 43.5%
- viability, T/C (second compound 0.00316 µM, first compound 0.0949 µM): 70.4%
- viability, T/C (second compound 0.00316 µM, first compound 0.3 µM): 69%
- viability, T/C (second compound 0.00316 µM, first compound 0.949 µM): 34%
- viability, T/C (second compound 0.00316 µM, first compound 3 µM): 32.1%
- viability, T/C (second compound 0.01 µM, first compound 0.00949 µM): 62.3%
- viability, T/C (second compound 0.01 µM, first compound 0.03 µM): 72.2%
- viability, T/C (second compound 0.01 µM, first compound 0.0949 µM): 35.5%
- viability, T/C (second compound 0.01 µM, first compound 0.3 µM): 43.7%
- viability, T/C (second compound 0.01 µM, first compound 0.949 µM): 32.7%
- viability, T/C (second compound 0.01 µM, first compound 3 µM): 22.9%
- viability, T/C (second compound 0.0316 µM, first compound 0.00949 µM): 66.5%
- viability, T/C (second compound 0.0316 µM, first compound 0.03 µM): 50.9%
- viability, T/C (second compound 0.0316 µM, first compound 0.0949 µM): 56%
- viability, T/C (second compound 0.0316 µM, first compound 0.3 µM): 39.5%
- viability, T/C (second compound 0.0316 µM, first compound 0.949 µM): 25.8%
- viability, T/C (second compound 0.0316 µM, first compound 3 µM): 18%
- viability, T/C (second compound 0.1 µM, first compound 0.00949 µM): 48%
- viability, T/C (second compound 0.1 µM, first compound 0.03 µM): 27.9%
- viability, T/C (second compound 0.1 µM, first compound 0.0949 µM): 39.6%
- viability, T/C (second compound 0.1 µM, first compound 0.3 µM): 29.3%
- viability, T/C (second compound 0.1 µM, first compound 0.949 µM): 24.4%
- viability, T/C (second compound 0.1 µM, first compound 3 µM): 29.3%
- viability, T/C (second compound 0.316 µM, first compound 0.00949 µM): 19.6%
- viability, T/C (second compound 0.316 µM, first compound 0.03 µM): 14.8%
- viability, T/C (second compound 0.316 µM, first compound 0.0949 µM): 16.3%
- viability, T/C (second compound 0.316 µM, first compound 0.3 µM): 11.3%
- viability, T/C (second compound 0.316 µM, first compound 0.949 µM): 11.7%
- viability, T/C (second compound 0.316 µM, first compound 3 µM): 6.47%
- viability, T/C (second compound 1 µM, first compound 0.00949 µM): 15.4%
- viability, T/C (second compound 1 µM, first compound 0.03 µM): 7.31%
- viability, T/C (second compound 1 µM, first compound 0.0949 µM): 5.89%
- viability, T/C (second compound 1 µM, first compound 0.3 µM): 4.21%
- viability, T/C (second compound 1 µM, first compound 0.949 µM): 4.29%
- viability, T/C (second compound 1 µM, first compound 3 µM): 1.75%
